Consider 22 molecules from patent US12466781B2, “Thyromimetics” (Autobahn Therapeutics, Inc., priority 2019, dated 2025).

Where only a bound is given, the exact number is not on record here.

One assay deals with T1, TRβ (Homo sapiens, UniProt P10828).
T1 construct: expressed in transfected cells; host or cells: HEK293
T1 sequence (P10828 217-461 limits assumed): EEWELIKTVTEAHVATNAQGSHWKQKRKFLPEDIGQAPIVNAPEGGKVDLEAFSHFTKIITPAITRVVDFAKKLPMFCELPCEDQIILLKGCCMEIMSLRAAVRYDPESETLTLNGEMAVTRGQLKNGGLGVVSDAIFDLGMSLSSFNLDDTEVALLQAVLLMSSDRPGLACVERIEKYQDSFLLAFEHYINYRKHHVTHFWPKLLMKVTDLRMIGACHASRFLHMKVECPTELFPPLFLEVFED
Description: Thyroid-hormone reporter-gene assay (TRβ-Gal4 hybrid, luciferase, HEK293). Conditions: Table 2; for T3-SI (selectivity index): calculated as EC50 (TRα)/EC50 (TRβ); for EC50: reporter cells, 24 hr incubation, read-out: TRβ (EC50). It counts as cell-based. The method, then:
(§1) Compounds were tested for thyroid-hormone receptor activity using TR reporter-gene assays. Reporter cells used in the assays express a TR-receptor hybrid (either TRα or TRβ) in which the native N-terminal DNA binding domain (DBD) has been replaced with that of the yeast Gal4 DBD. The reporter gene, firefly luciferase, is functionally linked to the Gal4 upstream activation sequence (UAS). Both cell lines were derived from human embryonic kidney (HEK293).
(§2) Step 1: A suspension of reporter cells was prepared in cell recovery medium containing 10% charcoal-stripped FBS, and dispensed into assay plates. The plates were pre-incubated for 6 hours in a cell culture incubator (37° C./5% CO2/85% humidity).
(§3) These intermediate stocks were subsequently diluted directly into compound screening medium containing 10% charcoal-stripped FBS to generate “2×-concentration” treatment media (containing 0.2, 0.4 or 0.8% DMSO).
(§4) Step 3: At the end of the pre-incubation period, culture media were discarded from the assay plates, and all wells received 100 μl of compound screening medium. 100 μl of each of the previously prepared “2×-concentration” treatment media were dispensed into duplicate assay wells, thereby achieving the desired final treatment concentrations. The final concentration of DMSO in all assay wells was 0.1, 0.2 or 0.4%. Assay plates were incubated for 24 hr in a cell culture incubator (37° C./5% CO2/85% humidity).
(§5) Step 4: At the 24 h assay endpoint, treatment media were discarded and 100 μl/well of luciferase detection reagent was added. Relative luminometer units (RLUs) were quantified from each assay well.

The target of a further assay is T2, TRα (Homo sapiens, UniProt P10827).
T2 construct: expressed in transfected cells; host or cells: HEK293
T2 sequence (P10827 163-410 isoform P10827-2 limits assumed): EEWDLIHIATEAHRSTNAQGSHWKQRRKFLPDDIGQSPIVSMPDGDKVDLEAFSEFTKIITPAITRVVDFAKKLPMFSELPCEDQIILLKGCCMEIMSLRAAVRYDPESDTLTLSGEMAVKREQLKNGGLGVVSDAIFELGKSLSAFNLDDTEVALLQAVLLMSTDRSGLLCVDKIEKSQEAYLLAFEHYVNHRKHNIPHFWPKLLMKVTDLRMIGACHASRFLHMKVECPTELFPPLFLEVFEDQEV
Description: Thyroid-hormone reporter-gene assay (TRα-Gal4 hybrid, luciferase, HEK293). Conditions: reporter cells, 24 hr incubation; Table 2; read-out: TRα (EC50). The class given is cell-based. How it is done: as §1, §2, §3, §4, §5

For the molecule `Cc1cc(OCC(=O)O)cc(C)c1Cc1ccc(O)c(C(C)C)c1F` [Compound 2, 2-(4-(2-fluoro-4-hydroxy-3-isopropylbenzyl)-3,5-dimethylphenoxy)acetic acid], at TRβ, the “T3-SI (selectivity index)” value was “++ (3×<T3-SI≤30×)” and the EC50 lay within 100 to 1000 nM. On TRα, the EC50 is more than 1000 nM.
For `Cc1cc(OCC(=O)O)cc(C)c1Cc1ccc(O)c(-c2cccc(OC(F)F)c2)c1F` [Compound 3, 2-(4-((3′-(difluoromethoxy)-2-fluoro-6-hydroxy-[1,1′-biphenyl]-3-yl)methyl)-3,5-dimethylphenoxy)acetic acid] the same measures were “++ (3×<T3-SI≤30×)”, 100 to 1000 nM and more than 1000 nM.
The like results for `Cc1cc(OCC(=O)O)cc(C)c1Cc1ccc(O)c(C(C)c2ccc(F)cc2)c1F` (stereo not drawn) [Compound 6, 2-(4-(2-fluoro-3-(1-(4-fluorophenyl)ethyl)-4-hydroxybenzyl)-3,5-dimethylphenoxy)acetic acid] were, in that order, “++ (3×<T3-SI≤30×)”, less than 10 nM and 10 to 100 nM.
The like results for `CCc1cc(OCC(=O)O)cc(C)c1Cc1ccc(O)c(C(C)C)c1F` [Compound 9, 2-(3-ethyl-4-(2-fluoro-4-hydroxy-3-isopropylbenzyl)-5-methylphenoxy)acetic acid] were, in that order, “++ (3×<T3-SI≤30×)”, 10 to 100 nM and 10 to 100 nM.
On to `C=C(C)c1cc(OCC(=O)O)cc(C)c1Cc1ccc(O)c(C(C)C)c1F` [Compound 12, 2-(4-(2-fluoro-4-hydroxy-3-isopropylbenzyl)-3-methyl-5-(prop-1-en-2-yl)phenoxy)acetic acid], for which the “T3-SI (selectivity index)” value on TRβ was “++ (3×<T3-SI≤30×)”. In addition, the results for the EC50 on TRβ and on TRα were less than 10 nM and 10 to 100 nM, respectively.
Turning to `Cc1cc(OCC(=O)O)cc(C(C)C)c1Cc1ccc(O)c(C(C)C)c1F` [Compound 13, 2-(4-(2-fluoro-4-hydroxy-3-isopropylbenzyl)-3-isopropyl-5-methylphenoxy)acetic acid], at TRβ, the “T3-SI (selectivity index)” value was “++ (3×<T3-SI≤30×)” and the half-maximal effective concentration (EC50) is less than 10 nM. The EC50 on TRα is less than 10 nM.
On to `CON(C)C(=O)COc1cc(Cl)c(Cc2ccc(O)c(C(C)C)c2F)c(Cl)c1` [Compound 22, 2-(3,5-dichloro-4-(2-fluoro-4-hydroxy-3-isopropylbenzyl)phenoxy)-N-methoxy-N-methylacetamide], for which, on TRβ, the “T3-SI (selectivity index)” value was “++ (3×<T3-SI≤30×)” and the EC50 fell in the range of 10 to 100 nM. Also, at TRα, the EC50 fell in the range of 10 to 100 nM.
For `O=C(O)COc1cc(Cl)c(Cc2ccc(O)c(-c3cccc(OC(F)F)c3)c2F)c(Cl)c1` [Compound 24, 2-(3,5-dichloro-4-((3′-(difluoromethoxy)-2-fluoro-6-hydroxy-[1,1′-biphenyl]-3-VI)methyl)phenoxy)acetic acid], at TRβ, the “T3-SI (selectivity index)” value was “++ (3×<T3-SI≤30×)” and the EC50 was 10 to 100 nM. The EC50 on TRα fell in the range of 100 to 1000 nM.
For `O=C(O)COc1cc(Cl)c(Cc2ccc(O)c(-c3cc(C(F)(F)F)ccc3F)c2F)c(Cl)c1` [Compound 25, 2-(3,5-dichloro-4-((2,2′-difluoro-6-hydroxy-5′-(trifluoromethyl)-[1,1′-biphenyl]-3-yl)methyl)phenoxy)acetic acid] the same measures were “++ (3×<T3-SI≤30×)”, less than 10 nM and 10 to 100 nM.
For `O=C(O)COc1cc(Cl)c(Cc2ccc(O)c(-c3cc(OC(F)F)ccc3F)c2F)c(Cl)c1` [Compound 26, 2-(3,5-dichloro-4-((5′-(difluoromethoxy)-2,2′-difluoro-6-hydroxy-[1,1′-biphenyl]-3-VI)methyl)phenoxy)acetic acid], at TRβ, the “T3-SI (selectivity index)” value was “++ (3×<T3-SI≤30×)”. Moreover, the EC50 lay within 10 to 100 nM at TRβ and 100 to 1000 nM on TRα.
With `O=C(O)COc1cc(Cl)c(Cc2ccc(O)c(Cc3ccc(F)cc3)c2F)c(Cl)c1` [Compound 28, 2-(3,5-dichloro-4-(2-fluoro-3-(4-fluorobenzyl)-4-hydroxybenzyl)phenoxy)acetic acid], on TRβ, the “T3-SI (selectivity index)” value was “++ (3×<T3-SI≤30×)” and the EC50 is 10 to 100 nM. For the same molecule, on TRα, the EC50 lay in the range of 10 to 100 nM.
Take `CC(c1ccc(F)cc1)c1c(O)ccc(Cc2c(Cl)cc(OCC(=O)O)cc2Cl)c1F` (stereo not drawn) [Compound 30, 2-(3,5-dichloro-4-(2-fluoro-3-(1-(4-fluorophenyl)ethyl)-4-hydroxybenzyl)phenoxy)acetic acid]: the “T3-SI (selectivity index)” value at TRβ was “++ (3×<T3-SI≤30×)”. The EC50 was less than 10 nM on TRβ and 10 to 100 nM on TRα.
The like results for `CCC(c1ccc(F)cc1)c1c(O)ccc(Cc2c(Cl)cc(OCC(=O)O)cc2Cl)c1F` (stereo not drawn) [Compound 32, 2-(3,5-dichloro-4-(2-fluoro-3-(1-(4-fluorophenyl)propyl)-4-hydroxybenzyl)phenoxy)acetic acid] were, in that order, “++ (3×<T3-SI≤30×)”, 10 to 100 nM and 100 to 1000 nM.
For `CCCC(c1ccc(F)cc1)c1c(O)ccc(Cc2c(Cl)cc(OCC(=O)O)cc2Cl)c1F` (stereo not drawn) [Compound 34, 2-(3,5-dichloro-4-(2-fluoro-3-(1-(4-fluorophenyl)butyl)-4-hydroxybenzyl)phenoxy)acetic acid] the same measures were “++ (3×<T3-SI≤30×)”, 100 to 1000 nM and more than 1000 nM.
On to `Cc1cc(OCC(=O)O)cc(Cl)c1Cc1ccc(O)c(C(C)C)c1F` [Compound 36, 2-(3-chloro-4-(2-fluoro-4-hydroxy-3-isopropylbenzyl)-5-methylphenoxy)acetic acid], for which, on TRβ, the “T3-SI (selectivity index)” value is “++ (3×<T3-SI≤30×)” and the EC50 was in the range of 10 to 100 nM. The EC50 on TRα is 10 to 100 nM.
On to `CC(C)c1c(O)ccc(Cc2c(Cl)cc(OCC(=O)O)cc2Br)c1F` [Compound 40, 2-(3-bromo-5-chloro-4-(2-fluoro-4-hydroxy-3-isopropylbenzyl)phenoxy)acetic acid], for which the “T3-SI (selectivity index)” value at TRβ is “++ (3×<T3-SI≤30×)”. Further, the EC50 at TRβ and on TRα was less than 10 nM throughout.
For the molecule `CCc1cc(OCC(=O)O)cc(Cl)c1Cc1ccc(O)c(C(C)C)c1F` [Compound 43, 2-(3-chloro-5-ethyl-4-(2-fluoro-4-hydroxy-3-isopropylbenzyl)phenoxy)acetic acid], at TRβ, the “T3-SI (selectivity index)” value is “++ (3×<T3-SI≤30×)” and the EC50 lay within 10 to 100 nM. For the same molecule, the EC50 on TRα fell in the range of 10 to 100 nM.
Consider `C=C(C)c1cc(OCC(=O)O)cc(Cl)c1Cc1ccc(O)c(C(C)C)c1F` [Compound 46, 2-(3-chloro-4-(2-fluoro-4-hydroxy-3-isopropylbenzyl)-5-(prop-1-en-2-yl)phenoxy)acetic acid], for which, on TRβ, the “T3-SI (selectivity index)” value is “++ (3×<T3-SI≤30×)” and the EC50 is less than 10 nM. Further, the EC50 on TRα fell in the range of 10 to 100 nM.
For `CC(C)c1cc(OCC(=O)O)cc(Cl)c1Cc1ccc(O)c(C(C)C)c1F` [Compound 47, 2-(3-chloro-4-(2-fluoro-4-hydroxy-3-isopropylbenzyl)-5-isopropylphenoxy)acetic acid] the same measures were “++ (3×<T3-SI≤30×)”, less than 10 nM and less than 10 nM.
In the case of `CC(C)c1c(O)ccc(Cc2c(Cl)cc(OCC(=O)O)cc2Cl)c1Cl` [Compound 49, 2-(3,5-dichloro-4-(2-chloro-4-hydroxy-3-isopropylbenzyl)phenoxy)acetic acid], on TRβ, the “T3-SI (selectivity index)” value is “++ (3×<T3-SI≤30×)”. Further, the EC50 on TRβ lay in the range of 10 to 100 nM; at TRα, 100 to 1000 nM.
On to `COc1c(Cc2c(Cl)cc(OCC(=O)O)cc2Cl)ccc(O)c1C(C)C` [Compound 54, 2-(3,5-dichloro-4-(4-hydroxy-3-isopropyl-2-methoxybenzyl)phenoxy)acetic acid], for which, on TRβ, the “T3-SI (selectivity index)” value was “++ (3×<T3-SI≤30×)”. For the same molecule, the EC50 at TRβ is 100 to 1000 nM; on TRα it was more than 1000 nM.
Take `Cc1cc(OCC(=O)O)c(F)c(C)c1Cc1ccc(O)c(C(C)C)c1` [Compound 58, 2-(2-fluoro-4-(4-hydroxy-3-isopropylbenzyl)-3,5-dimethylphenoxy)acetic acid]: on TRβ, the “T3-SI (selectivity index)” value is “+++ (T3-SI>30×)” and the EC50 lay within 10 to 100 nM. In addition, the EC50 on TRα lay within 100 to 1000 nM.

As usually defined, the EC50 is the midpoint of the concentration-response curve.
